The values below come from US20160264536A1, “HETEROCYCLIC COMPOUND” (Takeda Pharmaceutical Company Limited, priority 2013, published 2016).

The target of this assay is T1, human PDE2A3 enzyme (Homo sapiens, UniProt O00408).
T1 construct: Human PDE2A3 full-length gene was transduced into Sf9; His-tag; made in house; host or cells: Sf9 insect cells
T1 sequence (O00408 whole entry): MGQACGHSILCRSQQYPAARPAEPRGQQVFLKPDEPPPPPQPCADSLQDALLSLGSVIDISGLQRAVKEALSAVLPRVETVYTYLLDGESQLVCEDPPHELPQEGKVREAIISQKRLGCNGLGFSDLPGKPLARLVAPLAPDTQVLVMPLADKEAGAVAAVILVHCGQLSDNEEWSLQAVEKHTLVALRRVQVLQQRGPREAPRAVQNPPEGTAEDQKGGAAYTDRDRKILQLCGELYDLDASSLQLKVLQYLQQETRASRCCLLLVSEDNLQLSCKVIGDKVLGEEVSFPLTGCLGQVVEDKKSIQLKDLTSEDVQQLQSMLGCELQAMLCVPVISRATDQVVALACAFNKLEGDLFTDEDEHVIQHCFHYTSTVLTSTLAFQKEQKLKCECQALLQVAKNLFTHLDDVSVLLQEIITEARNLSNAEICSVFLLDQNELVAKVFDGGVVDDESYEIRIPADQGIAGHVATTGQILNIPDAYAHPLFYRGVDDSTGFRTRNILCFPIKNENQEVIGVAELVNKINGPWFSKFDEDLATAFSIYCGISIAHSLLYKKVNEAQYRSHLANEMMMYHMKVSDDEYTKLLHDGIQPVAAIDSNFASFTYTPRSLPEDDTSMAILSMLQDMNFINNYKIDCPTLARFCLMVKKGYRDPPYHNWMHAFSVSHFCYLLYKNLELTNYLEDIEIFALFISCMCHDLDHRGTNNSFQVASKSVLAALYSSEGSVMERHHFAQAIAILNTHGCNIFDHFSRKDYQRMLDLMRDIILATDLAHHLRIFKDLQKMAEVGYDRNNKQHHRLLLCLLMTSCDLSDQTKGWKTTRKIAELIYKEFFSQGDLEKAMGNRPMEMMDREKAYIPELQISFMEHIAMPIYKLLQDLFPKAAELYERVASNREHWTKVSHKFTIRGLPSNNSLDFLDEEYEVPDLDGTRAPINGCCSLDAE
The experiment in a line: PDE enzyme inhibitory assay (SPA, [3H]cGMP substrate). The class given is biochemical. The note with it: compound 1 μM, substrate [3H]cGMP 77 nM, read-out: inhibitory rate (%) (1 μM). The method, then: PDE Enzyme Inhibitory Assay
Human PDE2A3 full-length gene was transduced into Sf9, and human PDE2A3 enzyme was purified by His-tag affinity column and gel filtration. The enzyme was stored at −70° C. until use. PDE activity was measured by using a SPA (Scintillation Proximity Assay) (GE Healthcare). To evaluate the inhibitory activity of the compound, 10 μl of serial diluted compounds were reacted with 20 μl of PDE enzyme in assay buffer (50 mM HEPES-NaOH, 8.3 mM MgCl2, 1.7 mM EGTA, 0.1% BSA (pH 7.4)) for 30 min at room temperature. Final concentration of DMSO in the reaction solution was 1%. Compounds were tested in duplicate in 96-well half-area plates (Corning) or 384-well OptiPlate (PerkinElmer). To start the reaction, 10 μl of substrate [^3H]cGMP (final concentration 77 nM, PerkinElmer) was added to a total volume of 40 μl. After reaction for 60 min at room temperature, 20 μl of 20 mg/mL yttrium SPA beads containing zinc sulfate was added to terminate the reaction. After being settled for further 1 hour, the assay plates were counted in a scintillation counter (PerkinElmer) to allow calculation of inhibition rate. Inhibition rate was calculated on the basis of 0% control wells with enzyme and DMSO, and 100% control wells without enzyme.
As to `COC[C@@H](NC(=O)c1cc(=O)[nH]c(N(C)C)n1)c1ccc(OC(F)(F)F)cc1` [Example 20, 2-(dimethylamino)-N-((1S)-2-methoxy-1-(4-(trifluoromethoxy)phenyl)ethyl)-6-oxo-1,6-dihydropyrimidine-4-carboxamide], the inhibition at 1 µM was 98%. Take `COC[C@@H](NC(=O)c1cc(=O)[nH]c(N(C)C)n1)c1ccc(OC(F)(F)F)c(F)c1` [Example 33, 2-(dimethylamino)-N-((1S)-1-(3-fluoro-4-(trifluoromethoxy)phenyl)-2-methoxyethyl)-6-oxo-1,6-dihydropyrimidine-4-carboxamide]: the inhibition at 1 µM was 99%. Consider `COC[C@@H](NC(=O)c1cc(=O)[nH]c(N2CC[C@H](OC)C2)n1)c1ccc(OC(F)(F)F)cc1` [Example 45, 2-((3S)-3-methoxypyrrolidin-1-yl)-N-((1S)-2-methoxy-1-(4-(trifluoromethoxy)phenyl)ethyl)-6-oxo-1,6-dihydropyrimidine-4-carboxamide], for which the inhibition at 1 µM was found to be 97%. To `COC[C@@H](NC(=O)c1cc(=O)[nH]c(N2CCCC2)n1)c1ccc(OC(F)(F)F)cc1` [Example 52, N-((1S)-2-methoxy-1-(4-(trifluoromethoxy)phenyl)ethyl)-6-oxo-2-(pyrrolidin-1-yl)-1,6-dihydropyrimidine-4-carboxamide] belongs 102%; to `COC[C@@H](NC(=O)c1cc(=O)[nH]c(N2CC(OC)C2)n1)c1ccc(OC(F)(F)F)cc1` [Example 55, 2-(3-methoxyazetidin-1-yl)-N-((1S)-2-methoxy-1-(4-(trifluoromethoxy)phenyl)ethyl)-6-oxo-1,6-dihydropyrimidine-4-carboxamide], 98%.

For the compound `COC[C@@H](NC(=O)c1cc(=O)[nH]c(N2CCCC2)n1)c1ccc(OC(F)(F)F)c(F)c1` [Example 61, N-((1S)-1-(3-fluoro-4-(trifluoromethoxy)phenyl)-2-methoxyethyl)-6-oxo-2-(pyrrolidin-1-yl)-1,6-dihydropyrimidine-4-carboxamide], the inhibition at 1 µM was 98%. Turning to `CC(C)(O)C(NC(=O)c1cc(=O)[nH]c(N2CCCC2)n1)c1ccc(OC(F)(F)F)c(F)c1` (centres unmarked) [Example 62, N-(1-(3-fluoro-4-(trifluoromethoxy)phenyl)-2-hydroxy-2-methylpropyl)-6-oxo-2-(pyrrolidin-1-yl)-1,6-dihydropyrimidine-4-carboxamide], the inhibition at 1 µM is 99%. Regarding `COC[C@@H](NC(=O)c1cc(=O)[nH]c(N2CC[C@H](OC(C)C)C2)n1)c1ccc(OC(F)(F)F)cc1` [Example 67, 2-((3S)-3-isopropoxypyrrolidin-1-yl)-N-((1S)-2-methoxy-1-(4-(trifluoromethoxy)phenyl)ethyl)-6-oxo-1,6-dihydropyrimidine-4-carboxamide], the inhibition at 1 µM turned out to be 100%.

As to `COC[C@@H](NC(=O)c1cc(=O)[nH]c(N2CC3CC(C2)O3)n1)c1ccc(OC(F)(F)F)c(F)c1` [Example 73, N-((1S)-1-(3-fluoro-4-(trifluoromethoxy)phenyl)-2-methoxyethyl)-2-(6-oxa-3-azabicyclo[3.1.1]hept-3-yl)-6-oxo-1,6-dihydropyrimidine-4-carboxamide], the inhibition at 1 µM turned out to be 99%. With `CCN(C)c1nc(C(=O)N[C@H](COC)c2ccc(OC(F)(F)F)c(F)c2)cc(=O)[nH]1` [Example 76, 2-(ethyl(methyl)amino)-N-((1S)-1-(3-fluoro-4-(trifluoromethoxy)phenyl)-2-methoxyethyl)-6-oxo-1,6-dihydropyrimidine-4-carboxamide], the inhibition at 1 µM amounted to 101%. As for `COC[C@@H](NC(=O)c1cc(=O)[nH]c(C(C)(C)C)n1)c1ccc(OC(F)(F)F)c(F)c1` [Example 80, 2-tert-butyl-N-((1S)-1-(3-fluoro-4-(trifluoromethoxy)phenyl)-2-methoxyethyl)-6-oxo-1,6-dihydropyrimidine-4-carboxamide], the inhibition at 1 µM was 94%. Take `COC[C@@H](NC(=O)c1cc(=O)[nH]c(C2CC2)n1)c1ccc(OC(F)(F)F)c(F)c1` [Example 81, 2-cyclopropyl-N-((1S)-1-(3-fluoro-4-(trifluoromethoxy)phenyl)-2-methoxyethyl)-6-oxo-1,6-dihydropyrimidine-4-carboxamide]: the inhibition at 1 µM is 93%. As for `COC[C@@H](NC(=O)c1cc(=O)[nH]c(C2=CCCC2)n1)c1ccc(OC(F)(F)F)c(F)c1` [Example 83, 2-(cyclopent-1-en-1-yl)-N-((1S)-1-(3-fluoro-4-(trifluoromethoxy)phenyl)-2-methoxyethyl)-6-oxo-1,6-dihydropyrimidine-4-carboxamide], the inhibition at 1 µM came out at 98%. With `COC[C@@H](NC(=O)c1cc(=O)[nH]c(-c2ccccc2)n1)c1ccc(OC(F)(F)F)c(F)c1` [Example 87, N-((1S)-1-(3-fluoro-4-(trifluoromethoxy)phenyl)-2-methoxyethyl)-6-oxo-2-phenyl-1,6-dihydropyrimidine-4-carboxamide], the inhibition at 1 µM was determined as 98%.

On to `COC[C@@H](NC(=O)c1cc(=O)[nH]c(-c2ccccn2)n1)c1ccc(OC(F)(F)F)c(F)c1` [Example 88, N-((1S)-1-(3-fluoro-4-(trifluoromethoxy)phenyl)-2-methoxyethyl)-6-oxo-2-(pyridin-2-yl)-1,6-dihydropyrimidine-4-carboxamide], for which the inhibition at 1 µM was 92%.

With `CC(C)(C)c1nc(C(=O)N[C@@H](c2ccc(OC(F)(F)F)c(F)c2)C(C)(C)O)cc(=O)[nH]1` [Example 95, 2-tert-butyl-N-(1-(3-fluoro-4-(trifluoromethoxy)phenyl)-2-hydroxy-2-methylpropyl)-6-oxo-1,6-dihydropyrimidine-4-carboxamide], the inhibition at 1 µM was found to be 104%. Consider `CC(C)(O)[C@@H](NC(=O)c1cc(=O)[nH]c(C2CC2)n1)c1ccc(OC(F)(F)F)c(F)c1` [Example 96, 2-cyclopropyl-N-((1S)-1-(3-fluoro-4-(trifluoromethoxy)phenyl)-2-hydroxy-2-methylpropyl)-6-oxo-1,6-dihydropyrimidine-4-carboxamide], for which the inhibition at 1 µM was determined as 94%. To `CC(C)(O)[C@@H](NC(=O)c1cc(=O)[nH]c(-c2ccccn2)n1)c1ccc(OC(F)(F)F)c(F)c1` [Example 102, N-((1S)-1-(3-fluoro-4-(trifluoromethoxy)phenyl)-2-hydroxy-2-methylpropyl)-6-oxo-2-(pyridin-2-yl)-1,6-dihydropyrimidine-4-carboxamide] belongs 102%; to `COC[C@@H](NC(=O)c1cc(=O)[nH]c(C2(C)CC2)n1)c1ccc(OC(F)(F)F)c(F)c1` [Example 103, N-((1S)-1-(3-fluoro-4-(trifluoromethoxy)phenyl)-2-methoxyethyl)-2-(1-methylcyclopropyl)-6-oxo-1,6-dihydropyrimidine-4-carboxamide], 108%; to `COC[C@@H](NC(=O)c1cc(=O)[nH]c(-c2ccc(OC)cn2)n1)c1ccc(OC(F)(F)F)c(F)c1` [Example 105, N-((1S)-1-(3-fluoro-4-(trifluoromethoxy)phenyl)-2-methoxyethyl)-2-(5-methoxypyridin-2-yl)-6-oxo-1,6-dihydropyrimidine-4-carboxamide], 104%. Turning to `COC[C@@H](NC(=O)c1cc(=O)[nH]c(-c2cccs2)n1)c1ccc(OC(F)(F)F)c(F)c1` [Example 107, N-((1S)-1-(3-fluoro-4-(trifluoromethoxy)phenyl)-2-methoxyethyl)-6-oxo-2-(2-thienyl)-1,6-dihydropyrimidine-4-carboxamide], the inhibition at 1 µM was determined as 97%. For the compound `CC#Cc1nc(C(=O)N[C@H](COC)c2ccc(OC(F)(F)F)c(F)c2)cc(=O)[nH]1` [Example 111, N-((1S)-1-(3-fluoro-4-(trifluoromethoxy)phenyl)-2-methoxyethyl)-6-oxo-2-(prop-1-yn-1-yl)-1,6-dihydropyrimidine-4-carboxamide], the inhibition at 1 µM amounted to 94%. The same measure for `CC(C)(O)[C@@H](NC(=O)c1cc(=O)[nH]c(C2=CCCC2)n1)c1ccc(OC(F)(F)F)c(F)c1` [Example 114, 2-(cyclopent-1-en-1-yl)-N-((1S)-1-(3-fluoro-4-(trifluoromethoxy)phenyl)-2-hydroxy-2-methylpropyl)-6-oxo-1,6-dihydropyrimidine-4-carboxamide]: 104%; for `COC[C@@H](NC(=O)c1cc(=O)[nH]c(C2=CCCC2)n1)c1ccc(OC(F)(F)F)cc1` [Example 115, 2-(cyclopent-1-en-1-yl)-N-((1S)-2-methoxy-1-(4-(trifluoromethoxy)phenyl)ethyl)-6-oxo-1,6-dihydropyrimidine-4-carboxamide]: 100%; for `COCC(NC(=O)c1cc(=O)[nH]c(-c2ccccn2)n1)c1ccc(-n2cccc2)c(F)c1` (centres unmarked) [Example 116, N-(1-(3-fluoro-4-(1H-pyrrol-1-yl)phenyl)-2-methoxyethyl)-6-oxo-2-(pyridin-2-yl)-1,6-dihydropyrimidine-4-carboxamide]: 99%. Take `COC[C@@H](NC(=O)c1cc(=O)[nH]c(-c2ccsc2)n1)c1ccc(OC(F)(F)F)c(F)c1` [Example 120, N-((1S)-1-(3-fluoro-4-(trifluoromethoxy)phenyl)-2-methoxyethyl)-6-oxo-2-(3-thienyl)-1,6-dihydropyrimidine-4-carboxamide]: the inhibition at 1 µM came to 103%.
